Tested on: MV-4-11 cells
Experiment: Gene expression microarray analysis (Affymetrix PrimeView) and GSEA
Format: cell-based, human
Design: RFU PODN (11730768_x_at) / Fold change /veh PODN (11730768_x_at) / RFU LINC00158 (11744669_a_at) / Fold change /veh LINC00158 (11744669_a_at) / RFU DUSP10 (11751237_a_at) / Fold change /veh DUSP10 (11751237_a_at) / RFU ID3 (11757404_x_at) / Fold change /veh ID3 (11757404_x_at) / RFU PLEKHG5 (11737974_s_at) / Fold change /veh PLEKHG5 (11737974_s_at) / RFU LRRC4B (11730491_at) / Fold change /veh LRRC4B (11730491_at) / RFU GIMAP4 (11747438_a_at) / Fold change /veh GIMAP4 (11747438_a_at) / RFU KRT8 (11758183_x_at) / Fold change /veh KRT8 (11758183_x_at) / RFU CNN1 (11734310_a_at) / Fold change /veh CNN1 (11734310_a_at) / RFU VPS37D (11726825_at) / Fold change /veh VPS37D (11726825_at) / RFU C10orf10 (11716522_x_at) / Fold change /veh C10orf10 (11716522_x_at) / RFU KIR2DL2 /// KIR2DL4 /// KIR2DL5A /// KIR2DL5B /// KIR2DS1 /// KIR2DS2 /// KIR2DS3 /// KIR2DS4 /// KIR3DL3 /// KIR3DL3 /// KIR3DS1 (11738374_at) / Fold change /veh KIR2DL2 /// KIR2DL4 /// KIR2DL5A /// KIR2DL5B /// KIR2DS1 /// KIR2DS2 /// KIR2DS3 /// KIR2DS4 /// KIR3DL3 /// KIR3DL3 /// KIR3DS1 (11738374_at) / RFU C1QL1 (11718748_at) / Fold change /veh C1QL1 (11718748_at) / RFU TMPRSS4 (11747572_a_at) / Fold change /veh TMPRSS4 (11747572_a_at) / RFU HAMP (11756126_x_at) / Fold change /veh HAMP (11756126_x_at) / RFU RNFT2 (11725882_a_at) / Fold change /veh RNFT2 (11725882_a_at) / RFU NR4A2 (11747474_a_at) / Fold change /veh NR4A2 (11747474_a_at) / RFU ABCC12 (11746883_a_at) / Fold change /veh ABCC12 (11746883_a_at) / RFU TMEM136 (11760407_x_at) / Fold change /veh TMEM136 (11760407_x_at) / RFU CLDN22 /// WWC2 (11732394_at) / Fold change /veh CLDN22 /// WWC2 (11732394_at) / RFU HLA-DPB1 (11760878_x_at) / Fold change /veh HLA-DPB1 (11760878_x_at) / RFU SPINT1 (11716480_a_at) / Fold change /veh SPINT1 (11716480_a_at) / RFU GAP43 (11754022_s_at) / Fold change /veh GAP43 (11754022_s_at) / RFU A4GNT (11735810_at) / Fold change /veh A4GNT (11735810_at) / RFU PRB3 (11715151_x_at) / Fold change /veh PRB3 (11715151_x_at) / RFU TUBB4B (11761932_at) / Fold change /veh TUBB4B (11761932_at) / RFU CAPN14 (11732068_a_at) / Fold change /veh CAPN14 (11732068_a_at) / RFU TMCC2 (11721928_a_at) / Fold change /veh TMCC2 (11721928_a_at) / RFU IRGQ (11745062_a_at) / Fold change /veh IRGQ (11745062_a_at) / RFU FAM174B (11720279_a_at) / Fold change /veh FAM174B (11720279_a_at) / RFU TMPRSS4 (11748680_a_at) / Fold change /veh TMPRSS4 (11748680_a_at) / RFU FAM212B (11763350_a_at) / Fold change /veh FAM212B (11763350_a_at) / RFU PLEKHG5 (11743358_a_at) / Fold change /veh PLEKHG5 (11743358_a_at) / RFU ZSCAN30 (11745921_a_at) / Fold change /veh ZSCAN30 (11745921_a_at) / RFU CMKLR1 (11741424_a_at) / Fold change /veh CMKLR1 (11741424_a_at) / RFU LOC101060620 /// MAPK8IP1 (11723275_at) / Fold change /veh LOC101060620 /// MAPK8IP1 (11723275_at) / RFU SPTSSB (11747773_x_at) / Fold change /veh SPTSSB (11747773_x_at) / RFU PRSS12 (11739890_at) / Fold change /veh PRSS12 (11739890_at) / RFU BIN1 (11741810_x_at) / Fold change /veh BIN1 (11741810_x_at) / RFU WNT11 (11732464_a_at) / Fold change /veh WNT11 (11732464_a_at) / RFU C10orf10 (11716521_a_at) / Fold change /veh C10orf10 (11716521_a_at) / RFU C5orf56 (11738089_at) / Fold change /veh C5orf56 (11738089_at) / RFU CYB561 (11721691_x_at) / Fold change /veh CYB561 (11721691_x_at) / RFU ANKRD19P (11752326_a_at) / Fold change /veh ANKRD19P (11752326_a_at) / RFU OR2T12 /// OR2T33 /// OR2T8 (11738714_s_at) / Fold change /veh OR2T12 /// OR2T33 /// OR2T8 (11738714_s_at) / RFU VCAN (11748164_a_at) / Fold change /veh VCAN (11748164_a_at) / RFU JSRP1 (11732532_at) / Fold change /veh JSRP1 (11732532_at) / RFU KRTAP10-11 (11738290_x_at) / Fold change /veh KRTAP10-11 (11738290_x_at) / RFU MYO3A (11730013_a_at) / Fold change /veh MYO3A (11730013_a_at) / RFU EBF3 (11725865_a_at) / Fold change /veh EBF3 (11725865_a_at) / RFU CAMK2N1 (11719241_x_at) / Fold change /veh CAMK2N1 (11719241_x_at) / RFU C5orf56 (11738088_a_at) / Fold change /veh C5orf56 (11738088_a_at) / RFU OLFML3 (11715873_a_at) / Fold change /veh OLFML3 (11715873_a_at) / RFU LOC100653217 /// NTM (11731650_a_at) / Fold change /veh LOC100653217 /// NTM (11731650_a_at) / RFU MAPK11 (11762145_a_at) / Fold change /veh MAPK11 (11762145_a_at) / RFU FIZ1 (11724087_x_at) / Fold change /veh FIZ1 (11724087_x_at) / RFU OASL (11726364_x_at) / Fold change /veh OASL (11726364_x_at) / RFU SOX15 (11748057_x_at) / Fold change /veh SOX15 (11748057_x_at) / RFU CD79A (11719716_a_at) / Fold change /veh CD79A (11719716_a_at) / RFU HIST1H1D (11736915_at) / Fold change /veh HIST1H1D (11736915_at) / RFU CASKIN2 (11723855_a_at) / Fold change /veh CASKIN2 (11723855_a_at) / RFU LOC730098 (11760151_x_at) / Fold change /veh LOC730098 (11760151_x_at) / RFU OR4N2 (11742367_at) / Fold change /veh OR4N2 (11742367_at) / RFU PRRT2 (11749266_a_at) / Fold change /veh PRRT2 (11749266_a_at) / RFU SNX32 (11753110_a_at) / Fold change /veh SNX32 (11753110_a_at) / RFU CDHR5 (11726645_a_at) / Fold change /veh CDHR5 (11726645_a_at) / RFU RCAN1 (11760418_a_at) / Fold change /veh RCAN1 (11760418_a_at) / RFU FAM167A (11723789_a_at) / Fold change /veh FAM167A (11723789_a_at) / RFU FAM26E (11764081_at) / Fold change /veh FAM26E (11764081_at) / RFU ISYNA1 (11749810_s_at) / Fold change /veh ISYNA1 (11749810_s_at) / RFU ACY1 (11761880_at) / Fold change /veh ACY1 (11761880_at) / RFU 11764098_at / Fold change /veh 11764098_at / RFU SAMD14 (11745864_x_at) / Fold change /veh SAMD14 (11745864_x_at) / RFU NPB (11741838_a_at) / Fold change /veh NPB (11741838_a_at) / RFU TMPRSS6 (11731388_a_at) / Fold change /veh TMPRSS6 (11731388_a_at) / RFU KRTAP10-2 (11738614_at) / Fold change /veh KRTAP10-2 (11738614_at) / RFU ARHGAP8 /// PRR5-ARHGAP8 (11727945_x_at) / Fold change /veh ARHGAP8 /// PRR5-ARHGAP8 (11727945_x_at) / RFU KRTAP5-7 /// NADSYN1 (11734609_at) / Fold change /veh KRTAP5-7 /// NADSYN1 (11734609_at) / RFU RASL12 (11751679_a_at) / Fold change /veh RASL12 (11751679_a_at) / RFU CDKN2B (11736163_a_at) / Fold change /veh CDKN2B (11736163_a_at) / RFU PRF1 (11729649_at) / Fold change /veh PRF1 (11729649_at) / RFU, ZNF638 /// ZNF638-IT1 / Fold change vs veh, ZNF638 /// ZNF638-IT1 / RFU, PANK3 / Fold change vs veh, PANK3 / RFU, SH3YL1 / Fold change vs veh, SH3YL1 / RFU, ZEB2 / Fold change vs veh, ZEB2 / RFU, NRIP1 / Fold change vs veh, NRIP1 / RFU, PTTG1IP / Fold change vs veh, PTTG1IP / RFU, CAPN2 / Fold change vs veh, CAPN2 / RFU, MED14 / Fold change vs veh, MED14 / RFU, SNORA58 / Fold change vs veh, SNORA58 / RFU, C1orf63 / Fold change vs veh, C1orf63 / RFU, LRRFIP1 / Fold change vs veh, LRRFIP1 / RFU, NDUFAF7 / Fold change vs veh, NDUFAF7 / RFU, SLC12A2 / Fold change vs veh, SLC12A2 / RFU, IBTK / Fold change vs veh, IBTK / RFU, ESF1 / Fold change vs veh, ESF1 / Fold change vs veh, TMEM50B / RFU, TAOK1 / Fold change vs veh, TAOK1 / RFU, ACBD3 / Fold change vs veh, ACBD3 / RFU, TMA16 / Fold change vs veh, TMA16 / RFU, RWDD3 / Fold change vs veh, RWDD3 / RFU, BCAT1 / Fold change vs veh, BCAT1 / RFU, EDEM3 / Fold change vs veh, EDEM3 / RFU, TMEM33 / Fold change vs veh, TMEM33 / RFU, WDR75 / Fold change vs veh, WDR75 / RFU, AHCTF1 / Fold change vs veh, AHCTF1 / RFU, TFRC / Fold change vs veh, TFRC / RFU, ZDHHC17 / Fold change vs veh, ZDHHC17 / RFU, NOM1 / Fold change vs veh, NOM1 / RFU, ARL8B / Fold change vs veh, ARL8B / RFU, ZBTB11 / Fold change vs veh, ZBTB11 / RFU, TAMM41 / Fold change vs veh, TAMM41 / RFU, KIAA1704 /// LOC100996395 / Fold change vs veh, KIAA1704 /// LOC100996395 / RFU, ING1 / Fold change vs veh, ING1 / RFU, TRMT61B / Fold change vs veh, TRMT61B / RFU, FUBP3 / Fold change vs veh, FUBP3 / RFU, TP53 / Fold change vs veh, TP53 / RFU, TNKS2 / Fold change vs veh, TNKS2 / RFU, ZFP14 / Fold change vs veh, ZFP14 / RFU, ACTR2 / Fold change vs veh, ACTR2 / RFU, PPP3R1 / Fold change vs veh, PPP3R1 / RFU, PIK3R1 / Fold change vs veh, PIK3R1 / RFU, HNRNPA1 / Fold change vs veh, HNRNPA1 / RFU, RNF170 / Fold change vs veh, RNF170 / RFU, ZNF28 / Fold change vs veh, ZNF28 / RFU, RNGTT / Fold change vs veh, RNGTT / RFU, OGT / Fold change vs veh, OGT / RFU, BRD1 / Fold change vs veh, BRD1 / RFU, MARS / Fold change vs veh, MARS / RFU, ZNF655 / Fold change vs veh, ZNF655 / RFU, FAHD1 / Fold change vs veh, FAHD1 / RFU, BDP1 / Fold change vs veh, BDP1 / RFU, LRRCC1 / Fold change vs veh, LRRCC1 / RFU, ARID1A / Fold change vs veh, ARID1A / RFU, ZNF146 / Fold change vs veh, ZNF146 / RFU, ZNF330 / Fold change vs veh, ZNF330 / RFU, GPN3 / Fold change vs veh, GPN3 / RFU, C9orf123 / Fold change vs veh, C9orf123 / RFU, N4BP2L2 / Fold change vs veh, N4BP2L2 / RFU, ARFIP1 / Fold change vs veh, ARFIP1 / RFU, FAM179B / Fold change vs veh, FAM179B / RFU, BCL10 / Fold change vs veh, BCL10 / RFU, UHRF1BP1L / Fold change vs veh, UHRF1BP1L / RFU, BET1 / Fold change vs veh, BET1 / RFU, CNOT2 / Fold change vs veh, CNOT2 / RFU, ZNF268 / Fold change vs veh, ZNF268 / Fold change vs veh, ZNF507 / RFU, DGCR2 / Fold change vs veh, DGCR2 / RFU, WDSUB1 / Fold change vs veh, WDSUB1 / Fold change vs veh, HSP90B1 /// MIR3652 / RFU, ADSS / Fold change vs veh, ADSS / RFU, GK / Fold change vs veh, GK / RFU, ZNF148 / Fold change vs veh, ZNF148 / RFU, TAF9 / Fold change vs veh, TAF9 / RFU, SLC1A5 / Fold change vs veh, SLC1A5 / RFU, SLMO2 / Fold change vs veh, SLMO2 / RFU, ABCC4 / Fold change vs veh, ABCC4 / RFU, LOC101060439 /// RAP1B / Fold change vs veh, LOC101060439 /// RAP1B / RFU, RFX7 / Fold change vs veh, RFX7 / RFU, GTPBP10 / Fold change vs veh, GTPBP10 / RFU, CNEP1R1 / Fold change vs veh, CNEP1R1 / RFU, BIVM-ERCC5 /// ERCC5 / Fold change vs veh, BIVM-ERCC5 /// ERCC5 / RFU, ILF3 / Fold change vs veh, ILF3 / RFU 11762660_at / Fold change /veh 11762660_at / RFU VCAN (11757783_s_at) / Fold change /veh VCAN (11757783_s_at) / RFU DDX43 (11728927_at) / Fold change /veh DDX43 (11728927_at) / RFU KRT8 (11758188_x_at) / Fold change /veh KRT8 (11758188_x_at) / RFU NKD1 (11759106_at) / Fold change /veh NKD1 (11759106_at) / RFU SRD5A1 (11742802_a_at) / Fold change /veh SRD5A1 (11742802_a_at) / RFU TPSAB1 /// TPSB2 (11721975_s_at) / Fold change /veh TPSAB1 /// TPSB2 (11721975_s_at) / RFU GSTM3 (11746129_a_at) / Fold change /veh GSTM3 (11746129_a_at) / RFU IL23R (11737362_x_at) / Fold change /veh IL23R (11737362_x_at) / RFU TMEM51 (11727254_a_at) / Fold change /veh TMEM51 (11727254_a_at) / RFU PIWIL2 (11732686_x_at) / Fold change /veh PIWIL2 (11732686_x_at) / RFU ORM1 (11744905_x_at) / Fold change /veh ORM1 (11744905_x_at) / RFU CCDC152 (11743942_at) / Fold change /veh CCDC152 (11743942_at) / RFU ECM1 (11717891_a_at) / Fold change /veh ECM1 (11717891_a_at) / RFU IL23R (11748794_a_at) / Fold change /veh IL23R (11748794_a_at) / RFU TNFAIP8L3 (11732012_x_at) / Fold change /veh TNFAIP8L3 (11732012_x_at) / RFU MBOAT4 (11741988_at) / Fold change /veh MBOAT4 (11741988_at) / RFU 11764193_at / Fold change /veh 11764193_at / RFU TMEM53 (11763286_at) / Fold change /veh TMEM53 (11763286_at) / RFU MAGEB2 (11727129_at) / Fold change /veh MAGEB2 (11727129_at) / RFU TMEM200A (11744735_a_at) / Fold change /veh TMEM200A (11744735_a_at) / RFU CCDC152 (11751479_a_at) / Fold change /veh CCDC152 (11751479_a_at) / RFU FAM211A (11726209_a_at) / Fold change /veh FAM211A (11726209_a_at) / RFU RGS16 (11746705_a_at) / Fold change /veh RGS16 (11746705_a_at) / RFU VCAN (11755009_s_at) / Fold change /veh VCAN (11755009_s_at) / RFU RHOB (11743442_s_at) / Fold change /veh RHOB (11743442_s_at) / RFU RGS16 (11720943_a_at) / Fold change /veh RGS16 (11720943_a_at) / RFU RGS16 (11720944_at) / Fold change /veh RGS16 (11720944_at) / RFU, VPS4B / Fold change vs veh, VPS4B / RFU, CREB1 / Fold change vs veh, CREB1 / RFU, DNAJC13 / Fold change vs veh, DNAJC13 / RFU, GNAQ / Fold change vs veh, GNAQ / RFU, CDK5R1 / Fold change vs veh, CDK5R1 / RFU, ZRANB3 / Fold change vs veh, ZRANB3 / RFU, CUL4A / Fold change vs veh, CUL4A / RFU, CCNY / Fold change vs veh, CCNY / RFU, UFL1 / Fold change vs veh, UFL1 / RFU, COG3 / Fold change vs veh, COG3 / RFU, DIAPH2 / Fold change vs veh, DIAPH2 / RFU, SKA2 / Fold change vs veh, SKA2 / RFU, AFF3 / Fold change vs veh, AFF3 / RFU, LMF1 / Fold change vs veh, LMF1 / RFU, IPO11 / Fold change vs veh, IPO11 / RFU, DFFB / Fold change vs veh, DFFB / RFU, FOXP1 / Fold change vs veh, FOXP1 / RFU, CARD8 / Fold change vs veh, CARD8 / RFU, STRN3 / Fold change vs veh, STRN3 / RFU, ADK / Fold change vs veh, ADK / RFU, RASSF2 / Fold change vs veh, RASSF2 / RFU, WIPF1 / Fold change vs veh, WIPF1 / RFU, LARP1B / Fold change vs veh, LARP1B / RFU, RASA1 / Fold change vs veh, RASA1 / RFU, RB1 / Fold change vs veh, RB1 / RFU, PPFIA1 / Fold change vs veh, PPFIA1 / RFU, MAT2A / Fold change vs veh, MAT2A / RFU, CCT5 / Fold change vs veh, CCT5 / RFU, WDR92 / Fold change vs veh, WDR92 / RFU, CUX1 / Fold change vs veh, CUX1 / RFU, TTC7A / Fold change vs veh, TTC7A / RFU, TMEM135 / Fold change vs veh, TMEM135 / RFU, DEPTOR / Fold change vs veh, DEPTOR / RFU, CPM / Fold change vs veh, CPM / RFU, DNAJB6 / Fold change vs veh, DNAJB6 / RFU, CACNA2D3 / Fold change vs veh, CACNA2D3 / RFU, DTX4 / Fold change vs veh, DTX4 / RFU, TFCP2 / Fold change vs veh, TFCP2 / RFU, GMCL1 /// GMCL1P1 / Fold change vs veh, GMCL1 /// GMCL1P1 / RFU, AEBP2 / Fold change vs veh, AEBP2 / RFU, SNHG1 /// SNORD22 /// SNORD25 /// SNORD26 /// SNORD27 /// SNORD28 /// SNORD29 /// SNORD31 / Fold change vs veh, SNHG1 /// SNORD22 /// SNORD25 /// SNORD26 /// SNORD27 /// SNORD28 /// SNORD29 /// SNORD31 / Fold change (Aza/veh), C12orf56 (ProbeSet 11735607_a_at) / Fold change (ACY-1035/veh), C12orf56 (ProbeSet 11735607_a_at) / Fold change (Aza/veh), FGFR1OP (ProbeSet 11751329_s_at) / Fold change (ACY-1035/veh), FGFR1OP (ProbeSet 11751329_s_at) / Fold change (Aza/veh), VPS36 (ProbeSet 11739960_a_at) / Fold change (ACY-1035/veh), VPS36 (ProbeSet 11739960_a_at) / RFU SYPL1 (11715823_x_at) / Fold change /veh SYPL1 (11715823_x_at) / RFU IGFBP7 (11715501_s_at) / Fold change /veh IGFBP7 (11715501_s_at) / RFU REEP3 (11722064_at) / Fold change /veh REEP3 (11722064_at) / RFU IGLL1 (11728026_x_at) / Fold change /veh IGLL1 (11728026_x_at): dose or concentration left out as unconfirmed
Settings: MV-4-11 cells, 48 hours

SMILES: Nc1ccc(-c2cccs2)cc1NC(=O)c1ccc2c(c1)cc(C1CC1)n2CCN1CCOCC1 [ACY-1035]
- Fold change /veh RGS16 (11746705_a_at): 1.06
